Measurements reported in patent EP4596574A1, “GLP-1/GCG/GIP TRIPLE-RECEPTOR AGONIST AND USE THEREOF” (Sunshine Lake Pharma Co., Ltd., priority 2022, dated 2024).
Starred links: 1 amine or outer side, 2 acyl side, 3 side chain; linkers in the order of their positions; H or OH if unused. Non-standard residues stand in square brackets, D forms with d. Residues, ends and D or L forms follow the SMILES beside them. Groups on a side chain read outwards from the residue. *: point of attachment. C20 diacid = O=C(O)CCCCCCCCCCCCCCCCCCC(=O)*; αMePhe(2-F) = C[C@](N)(Cc1ccccc1F)C(=O)O; γGlu = O=C(O)[C@H](CCC(=O)[*:2])N[*:1]; AEEA = NCCOCCOCC(=O)O; Aib = CC(C)(N)C(=O)O

Assays:
Assay type in all cases: cell-based
GLP-1R = target: T1, GLP-1R (Homo sapiens, UniProt P43220); assay: In vitro cell activity, cAMP production in HEK293 cells expressing GLP-1R; conditions: HEK293-GLP-1R cells, cAMP; read-out: GLP-1R (EC50)
T1 construct: expressed in transfected cells; host or cells: HEK293 (HEK293-GLP-1R)
How it was run: (§1)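 cAMP output read as 665/620 nm HTRF ratio after adding cAMP-d2 plus anti-cAMP cryptate and incubating 1 h at room temperature in the dark or overnight at 4 °C. Cells: HEK293 expressing human GLP-1R or GCGR, plated from a 4×10^5 cells/mL suspension. Four-parameter fit gives EC50.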

GCGR = target: T2, GCGR (Homo sapiens, UniProt P47871); assay: In vitro cell activity, cAMP production in HEK293 cells expressing GCGR; conditions: HEK293-GCGR cells, cAMP; read-out: GCGR (EC50)
T2 construct: expressed in transfected cells; host or cells: HEK293 (HEK293-GCGR)
How it was run: as §1

GIPR = target: T3, GIPR (Homo sapiens, UniProt P48546); assay: In vitro cell activity, cAMP production in HEK293 cells expressing GIPR; conditions: HEK293-GIPR cells, cAMP; read-out: GIPR (EC50)
T3 construct: expressed in transfected cells; host or cells: HEK293 (HEK293-GIPR)
T3 sequence (P48546 22-466): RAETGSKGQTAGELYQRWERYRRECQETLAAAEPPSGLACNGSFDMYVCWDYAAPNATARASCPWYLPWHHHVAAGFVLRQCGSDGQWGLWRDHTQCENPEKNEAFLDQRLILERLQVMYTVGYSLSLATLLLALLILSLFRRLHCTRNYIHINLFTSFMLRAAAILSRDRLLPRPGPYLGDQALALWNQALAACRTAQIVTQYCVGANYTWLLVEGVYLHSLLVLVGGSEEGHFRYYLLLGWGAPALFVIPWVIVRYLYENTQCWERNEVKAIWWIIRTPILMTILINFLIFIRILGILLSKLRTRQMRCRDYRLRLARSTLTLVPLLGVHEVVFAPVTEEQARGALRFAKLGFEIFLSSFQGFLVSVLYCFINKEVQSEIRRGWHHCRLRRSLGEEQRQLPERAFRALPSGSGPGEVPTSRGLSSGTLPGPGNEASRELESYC
How it was run: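 HEK293 cells expressing human GIPR, thawed and diluted to 4×10^5 cells/mL, are stimulated with test compound. cAMP is measured by HTRF competition between cAMP-d2 and anti-cAMP cryptate. EC50 comes from a four-parameter nonlinear fit of signal ratio against concentration.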

T1 sequence (P43220 24-463, species assumed): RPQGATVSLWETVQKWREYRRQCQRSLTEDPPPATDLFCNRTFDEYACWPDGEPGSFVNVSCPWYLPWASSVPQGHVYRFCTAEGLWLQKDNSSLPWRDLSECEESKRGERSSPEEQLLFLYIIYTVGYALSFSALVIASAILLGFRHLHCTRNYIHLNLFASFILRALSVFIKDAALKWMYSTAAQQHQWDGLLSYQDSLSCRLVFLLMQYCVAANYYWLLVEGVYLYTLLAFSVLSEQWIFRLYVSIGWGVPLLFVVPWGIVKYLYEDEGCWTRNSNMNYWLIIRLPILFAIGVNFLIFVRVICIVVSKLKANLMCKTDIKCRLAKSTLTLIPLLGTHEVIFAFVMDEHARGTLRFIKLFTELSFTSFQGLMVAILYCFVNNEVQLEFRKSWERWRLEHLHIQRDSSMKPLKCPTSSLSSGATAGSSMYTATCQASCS
T2 sequence (P47871 26-477, species assumed): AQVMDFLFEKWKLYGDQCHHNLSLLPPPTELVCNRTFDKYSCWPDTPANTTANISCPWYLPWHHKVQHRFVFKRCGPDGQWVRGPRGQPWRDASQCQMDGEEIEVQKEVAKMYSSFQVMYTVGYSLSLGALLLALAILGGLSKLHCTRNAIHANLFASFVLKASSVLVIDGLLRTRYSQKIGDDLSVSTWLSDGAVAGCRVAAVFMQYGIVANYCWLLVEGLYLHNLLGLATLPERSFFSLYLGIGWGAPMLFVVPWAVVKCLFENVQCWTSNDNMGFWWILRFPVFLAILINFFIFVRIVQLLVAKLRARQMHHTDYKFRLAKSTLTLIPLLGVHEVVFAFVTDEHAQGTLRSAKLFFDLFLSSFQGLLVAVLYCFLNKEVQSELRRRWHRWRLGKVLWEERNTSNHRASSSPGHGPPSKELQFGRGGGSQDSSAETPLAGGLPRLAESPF

SMILES | EC50 (GLP-1R) [nM] | EC50 (GCGR) [nM] | EC50 (GIPR) [nM]
CC[C@H](C)[C@H](NC(=O)[C@H](CO)NC(=O)[C@H](Cc1ccc(O)cc1)NC(=O)[C@H](CC(=O)O)NC(=O)[C@H](CO)NC(=O)[C@@H](NC(=O)[C@](C)(Cc1ccccc1F)NC(=O)[C@@H](NC(=O)CNC(=O)[C@H](CCC(N)=O)NC(=O)C(C)(C)NC(=O)[C@@H](N)Cc1ccc(O)cc1)[C@@H](C)O)[C@@H](C)O)C(=O)N[C@@H](CC(C)C)C(=O)N[C@@H](CC(C)C)C(=O)N[C@@H](CC(=O)O)C(=O)N[C@@H](CCC(=O)O)C(=O)N[C@@H](CCCCNC(=O)COCCOCCNC(=O)CC[C@H](NC(=O)CCCCCCCCCCCCCCCCC(=O)O)C(=O)O)C(=O)N[C@@H](CCCCN)C(=O)N[C@@H](CCC(N)=O)C(=O)NC(C)(C)C(=O)N[C@@H](CCC(=O)O)C(=O)N[C@@H](Cc1ccccc1)C(=O)N[C@H](C(=O)N[C@@H](CCC(=O)O)C(=O)N[C@@H](Cc1c[nH]c2ccccc12)C(=O)N[C@@H](CC(C)C)C(=O)N[C@@H](CC(C)C)C(=O)N[C@@H](C)C(=O)NCC(=O)NCC(=O)N1CCC[C@H]1C(=O)N[C@@H](CO)C(=O)N[C@@H](CO)C(=O)NCC(=O)N[C@@H](C)C(=O)N1CCC[C@H]1C(=O)N1CCC[C@H]1C(=O)N1CCC[C@H]1C(=O)N[C@@H](CO)C(N)=O)[C@@H](C)CC [HEC-PT129] | 0.141 | 0.525 | 0.0439
CC[C@H](C)[C@H](NC(=O)[C@H](Cc1ccccc1)NC(=O)[C@H](C)NC(=O)[C@H](CCCCN)NC(=O)[C@H](CCC(N)=O)NC(=O)[C@H](CCCCN)NC(=O)[C@H](CCCCNC(=O)COCCOCCNC(=O)CC[C@H](NC(=O)CCCCCCCCCCCCCCCCC(=O)O)C(=O)O)NC(=O)[C@H](CCC(=O)O)NC(=O)[C@H](CC(=O)O)NC(=O)[C@H](CC(C)C)NC(=O)[C@H](CC(C)C)NC(=O)[C@@H](NC(=O)[C@H](CO)NC(=O)[C@H](Cc1ccc(O)cc1)NC(=O)[C@H](CC(=O)O)NC(=O)[C@H](CO)NC(=O)[C@@H](NC(=O)[C@](C)(Cc1ccccc1F)NC(=O)[C@@H](NC(=O)CNC(=O)[C@H](CCC(N)=O)NC(=O)C(C)(C)NC(=O)[C@@H](N)Cc1ccc(O)cc1)[C@@H](C)O)[C@@H](C)O)[C@@H](C)CC)C(=O)N[C@@H](CCC(=O)O)C(=O)N[C@@H](Cc1ccc(O)cc1)C(=O)N[C@@H](CC(C)C)C(=O)N[C@@H](CC(C)C)C(=O)N[C@@H](C)C(=O)NCC(=O)NCC(=O)N1CCC[C@H]1C(=O)N[C@@H](CO)C(=O)N[C@@H](CO)C(=O)NCC(=O)N[C@@H](C)C(=O)N1CCC[C@H]1C(=O)N1CCC[C@H]1C(=O)N1CCC[C@H]1C(=O)N[C@@H](CO)C(N)=O [HEC-PT130] | 0.17 | 4.86 | 0.541
CC[C@H](C)[C@H](NC(=O)[C@H](Cc1ccccc1)NC(=O)[C@H](C)NC(=O)[C@H](CCCCN)NC(=O)[C@H](CCC(N)=O)NC(=O)[C@H](CCCCN)NC(=O)[C@H](CCCCNC(=O)COCCOCCNC(=O)CC[C@H](NC(=O)CCCCCCCCCCCCCCCCCCC(=O)O)C(=O)O)NC(=O)[C@H](CCC(=O)O)NC(=O)[C@H](CC(=O)O)NC(=O)[C@H](CC(C)C)NC(=O)[C@H](CC(C)C)NC(=O)[C@@H](NC(=O)[C@H](CO)NC(=O)[C@H](Cc1ccc(O)cc1)NC(=O)[C@H](CC(=O)O)NC(=O)[C@H](CO)NC(=O)[C@@H](NC(=O)[C@](C)(Cc1ccccc1F)NC(=O)[C@@H](NC(=O)CNC(=O)[C@H](CCC(N)=O)NC(=O)C(C)(C)NC(=O)[C@@H](N)Cc1ccc(O)cc1)[C@@H](C)O)[C@@H](C)O)[C@@H](C)CC)C(=O)N[C@@H](CCC(=O)O)C(=O)N[C@@H](Cc1ccc(O)cc1)C(=O)N[C@@H](CC(C)C)C(=O)N[C@@H](CC(C)C)C(=O)N[C@@H](C)C(=O)NCC(=O)NCC(=O)N1CCC[C@H]1C(=O)N[C@@H](CO)C(=O)N[C@@H](CO)C(=O)NCC(=O)N[C@@H](C)C(=O)N1CCC[C@H]1C(=O)N1CCC[C@H]1C(=O)N1CCC[C@H]1C(=O)N[C@@H](CO)C(N)=O [HEC-PT131] | 0.249 | 8.07 | 1.13
CC[C@H](C)[C@H](NC(=O)[C@H](Cc1ccccc1)NC(=O)[C@H](C)NC(=O)[C@H](CCCNC(=N)N)NC(=O)[C@H](CCC(N)=O)NC(=O)[C@H](CCCNC(=N)N)NC(=O)[C@H](CCCCNC(=O)COCCOCCNC(=O)CC[C@H](NC(=O)CCCCCCCCCCCCCCCCC(=O)O)C(=O)O)NC(=O)[C@H](CCC(=O)O)NC(=O)[C@H](CC(=O)O)NC(=O)[C@H](CC(C)C)NC(=O)[C@H](CC(C)C)NC(=O)[C@@H](NC(=O)[C@H](CO)NC(=O)[C@H](Cc1ccc(O)cc1)NC(=O)[C@H](CC(=O)O)NC(=O)[C@H](CO)NC(=O)[C@@H](NC(=O)[C@](C)(Cc1ccccc1F)NC(=O)[C@@H](NC(=O)CNC(=O)[C@H](CCC(N)=O)NC(=O)C(C)(C)NC(=O)[C@@H](N)Cc1ccc(O)cc1)[C@@H](C)O)[C@@H](C)O)[C@@H](C)CC)C(=O)N[C@@H](CCC(=O)O)C(=O)N[C@@H](Cc1ccc(O)cc1)C(=O)N[C@@H](CC(C)C)C(=O)N[C@@H](CC(C)C)C(=O)N[C@@H](C)C(=O)NCC(=O)NCC(=O)N1CCC[C@H]1C(=O)N[C@@H](CO)C(=O)N[C@@H](CO)C(=O)NCC(=O)N[C@@H](C)C(=O)N1CCC[C@H]1C(=O)N1CCC[C@H]1C(=O)N1CCC[C@H]1C(=O)N[C@@H](CO)C(=O)O [HEC-PT134] | 0.146 | 0.862 | 0.207
CC[C@H](C)[C@H](NC(=O)[C@H](CO)NC(=O)[C@H](Cc1ccc(O)cc1)NC(=O)[C@H](CC(=O)O)NC(=O)[C@H](CO)NC(=O)[C@@H](NC(=O)[C@](C)(Cc1ccccc1F)NC(=O)[C@@H](NC(=O)CNC(=O)[C@H](CCC(N)=O)NC(=O)C(C)(C)NC(=O)[C@@H](N)Cc1ccc(O)cc1)[C@@H](C)O)[C@@H](C)O)C(=O)N[C@@H](CC(C)C)C(=O)N[C@@H](CC(C)C)C(=O)N[C@@H](CC(=O)O)C(=O)N[C@@H](CCC(=O)O)C(=O)N[C@@H](CCCCNC(=O)COCCOCCNC(=O)CC[C@H](NC(=O)CCCCCCCCCCCCCCCCC(=O)O)C(=O)O)C(=O)N[C@@H](CCCNC(=N)N)C(=O)N[C@@H](CCC(N)=O)C(=O)N[C@@H](CCCNC(=N)N)C(=O)N[C@@H](C)C(=O)N[C@@H](Cc1ccccc1)C(=O)N[C@H](C(=O)N[C@@H](CCC(=O)O)C(=O)N[C@@H](Cc1ccc(O)cc1)C(=O)N[C@@H](CC(C)C)C(=O)N[C@@H](CC(C)C)C(=O)N[C@@H](C)C(=O)NCC(=O)NCC(=O)N1CCC[C@H]1C(=O)N[C@@H](CO)C(=O)N[C@@H](CO)C(=O)NCC(=O)N[C@@H](C)C(=O)N1CCC[C@H]1C(=O)N1CCC[C@H]1C(=O)N1CCC[C@H]1C(=O)N[C@@H](CO)C(=O)O)C(C)C [HEC-PT135] | 0.19 | 0.902 | 0.283
CC[C@H](C)[C@H](NC(=O)[C@H](CCCCN)NC(=O)[C@H](CC(=O)O)NC(=O)[C@H](CCCCNC(=O)COCCOCCNC(=O)CC[C@H](NC(=O)CCCCCCCCCCCCCCCCCCC(=O)O)C(=O)O)NC(=O)[C@H](CC(C)C)NC(=O)[C@@H](NC(=O)[C@H](CO)NC(=O)[C@H](Cc1ccc(O)cc1)NC(=O)[C@H](CC(=O)O)NC(=O)[C@H](CO)NC(=O)[C@@H](NC(=O)[C@](C)(Cc1ccccc1F)NC(=O)[C@@H](NC(=O)CNC(=O)[C@H](CCC(N)=O)NC(=O)C(C)(C)NC(=O)[C@@H](N)Cc1ccc(O)cc1)[C@@H](C)O)[C@@H](C)O)[C@@H](C)CC)C(=O)N[C@@H](C)C(=O)N[C@@H](CCC(N)=O)C(=O)NC(C)(C)C(=O)N[C@@H](C)C(=O)N[C@@H](Cc1ccccc1)C(=O)N[C@H](C(=O)N[C@@H](CCC(=O)O)C(=O)N[C@@H](Cc1ccc(O)cc1)C(=O)N[C@@H](CC(C)C)C(=O)N[C@@H](CC(C)C)C(=O)N[C@@H](C)C(=O)NCC(=O)NCC(=O)N1CCC[C@H]1C(=O)N[C@@H](CO)C(=O)N[C@@H](CO)C(=O)NCC(=O)N[C@@H](C)C(=O)N1CCC[C@H]1C(=O)N1CCC[C@H]1C(=O)N1CCC[C@H]1C(=O)N[C@@H](CO)C(N)=O)[C@@H](C)CC [HEC-PT138] (H-Y[Aib]QGT[αMePhe(2-F)]TSDYSILK([AEEA-γGlu-C20 diacid])DKIAQ[Aib]AFIEYLLAGGPSSGAPPPS-NH2) | 0.271 | 0.175 | 0.0649
